{"source": "patent US20060264418A1", "about": "“6-(2,2,2-Trifluoroethylamino-7-chloro-2,3,4,5-tetrahydro-1h-benzo[d] azephine as a 5-ht2c receptor agonist” (priority 2003, published 2006)", "key": {"[1]": {"tested_on": "Wistar rats", "conditions": "general statement on standards; cited from earlier work"}, "[2]": {"tested_on": "male NIH Swiss mice", "assay": "Marble burying assay (with rotorod)", "type": "in vivo, mouse", "conditions": "30 min. burying session", "description": "Marble burying in mice has been used to model anxiety disorders including obsessive-compulsive disorders (OCD) due to ethological study of the behavior (e.g. Gyertyan I. “Analysis of the marble burying response: Marbles serve to measure digging rather than evoke burying”, Behavioural Pharmacology 6: 24-31, (1995)) and due to the pharmacological effects of clinical standards (c.f., Njung′E K. Handley S L. “Evaluation of marble-burying behavior as a model of anxiety”, Pharmacology, Biochemistry & Behavior. 38: 63-67, (1991)); Borsini F., Podhorna J., and Marazziti, D. “Do animal models of anxiety predict anxiolytic effects of antidepressants?”, Psychopharmacology 163: 121-141, (2002)). Thus, drugs used in the treatment of generalized anxiety in humans (e.g. benzodiazepines) as well as compounds used to treat OCD (e.g. SSRIs like fluoxetine) decrease burying.\nHouse experimentally-naïve male, NIH Swiss mice (Harlan Sprague-Dawley, Indianapolis, Ind.) weighing between 28-35 g in groups of 12 for at least three days prior to testing in a vivarium with 12 hr. light and dark cycles. Conduct experiments during the light cycle in a dimly lit experimental testing room. Dose mice with vehicle or compound and, after a specified pretreatment interval (generally 30 min.), place each mouse individually on a rotorod (Ugo Basile 7650) operating at a speed of 6 revolutions/min. and observe for falling. After 2 min. on the rotorod, place the mice individually in a 17×28×12 cm high plastic tub with 5 mm sawdust shavings on the floor that are covered with 20 blue marbles (1.5 cm diameter) placed in the center. After 30 min., count the number of marbles buried (⅔ covered with sawdust). Assess the compound's effect on marble burying with Dunnett's test and the effect on rotorod performance by Fisher's exact test.\nClinically effective standard compounds suppress marble burying at doses that are devoid of motor-impairing effects as measured on the rotorod. […]"}, "[3]": {"tested_on": "male NIH Swiss mice", "assay": "Nestlet shredding", "type": "in vivo, mouse", "conditions": "30 min.", "description": "Mice naturally will construct nests of material available in their living environment. Since this behavior is obsessive in nature, it has been used to model OCD (Mia Li, Denise Morrow and Jeffrey M. Witkin, “Decreases in nestlet shredding of mice by serotonin uptake inhibitors: comparison with marble burying”, Psychopharmacology, submitted Jul. 14, 2003). House experimentally-naïve male, NIH Swiss mice (Harlan Sprague-Dawley, Indianapolis, Ind.) weighing between 28-35 g in groups of 12 for at least three days prior to testing in a vivarium with a 12 hr. light/dark cycle. Conduct experiments during the light cycle in an experimental room with normal overhead fluorescent lighting. Dose mice with vehicle or test compound and after a specified pretreatment interval (generally 30 min.), place the mice individually in a 17×28×12 cm high plastic tub with about 5 mm sawdust shavings on the floor along with a pre-weighed multi-ply gauze pad (51 mm square). After 30 min., weigh the remainder of the gauze pad not removed by the mouse. Determine the weight of the gauze used for nestlet construction by subtraction. Compare the results for test compound treated mice to the results for vehicle control treated mice with Dunnett's test.\nClinically effective OCD treatment standard compounds suppress nestlet shredding at doses that are devoid of motor-impairing effects as measured by the rotorod test. […]"}, "[4]": {"tested_on": "Wistar rats", "assay": "Schedule-induced polydipsia", "type": "in vivo, rat", "description": "Food-deprived rats exposed to intermittent presentations of food will drink amounts of water that are far in excess of their normal daily intake and in excess of their intake when given all of their food at one time (Falk J L. “Production of polydipsia in normal rats by an intermittent food schedule”, Science 133: 195-196, (1961)). This excessive behavior is persistent and has been used to model OCD.\nMaintain Wistar rats on a food restricted diet (to maintain 85% free feeding weight), but with free access to water. Train the rats in a behavioral testing chamber to press a lever to receive a food pellet under a fixed interval schedule, such that the rats are rewarded with a 45 mg food pellet the first time they press a lever after a 120 second interval has elapsed. The fixed interval is then reset to 120 seconds and the process repeated. Thus, during a 90 min. test session, the rats can earn a maximum of 45 pellets. The behavioral chamber is also equipped with a water bottle that is weighed before and after the session to determine the amount of water consumed.\nAdminister test compounds on Tuesdays and Fridays. Determine control day performances on Thursdays. Administer compounds either orally at 60 min. before the beginning of a test session, or subcutaneously at 20 min. before the beginning of a test session. Compare the rates of lever pressing and water consumption for each animal's performance during sessions after test compound treatment with that animal's performance during control sessions, expressed as a percent of the control rate. Average the individual percent of control rates for each dose and calculate the standard error of the mean.\nThe in vivo efficacy of 5HT2C compounds at the 5HT2C receptor was confirmed by the prevention of effects of the 5HT2C agonists on excessive drinking by co-administration of the 5HT2C receptor antagonist, 6-chloro-5-methyl-N-(2-(2-methylpyridin-3-yl-oxy)pyridin-5-yl)aminocarbonyl)-2,3-dihydroindole."}}, "data": [{"smiles": "FC(F)(F)CNc1c(Cl)ccc2c1CCNCC2", "values": [{"measurement": "melting point", "value": "183 to 185.2", "unit": "°C"}]}, {"smiles": "CN(C)CCCN1c2ccccc2CCc2ccc(Cl)cc21", "note": "[chlomipramine]", "values": [{"measurement": "schedule-induced polydipsia, clinically effective OCD treatment standard compounds", "setting": "[1]", "value": "suppress schedule-induced polydipsia without producing notable changes in motor patterns, food intake, or behavior the following day"}]}, {"smiles": "CN(C)CCCN1c2ccccc2Sc2ccc(Cl)cc21", "note": "[chlorpromazine, reference compound]", "values": [{"measurement": "marble burying behavior (relative to rotorod performance)", "setting": "[2]", "value": "decreased marble burying only at doses that also disrupt rotorod performance"}]}, {"smiles": "C[C@H](N)Cc1ccccc1", "note": "[d-amphetamine, reference compound]", "values": [{"measurement": "nestlet shredding (relative to motor effects, rotorod test)", "setting": "[3]", "value": "decrease nestlet shredding only at doses that produce motoric side effects"}, {"measurement": "schedule-induced polydipsia (excessive drinking)", "setting": "[4]; food restricted rats, 90 min. test session", "value": "decreases excessive drinking only at behaviorally stimulating doses"}, {"measurement": "suppression of excessive drinking with co-administration of the 5-HT2C receptor antagonist", "setting": "[4]; rats", "value": "not prevented"}]}, {"smiles": "CNCCC(Oc1ccc(C(F)(F)F)cc1)c1ccccc1", "note": "(stereo not shown) [fluoxetine]", "values": [{"measurement": "schedule-induced polydipsia, clinically effective OCD treatment standard compounds", "setting": "[1]", "value": "suppress schedule-induced polydipsia without producing notable changes in motor patterns, food intake, or behavior the following day"}]}]}
